Results from patent US11306337B2, “Polypeptides having hydrolytic activity on 1-kestose in the presence of sucrose but lacking sucrase (invertase) activity, polynucleotides encoding same and methods of producting and using same in industrial sucrose production from 1-kestose” (CTC—Centro de Tecnologia Canavieira S.A., priority 2015, dated 2022).

T1: Saccharomyces cerevisiae invertase (Saccharomyces cerevisiae, UniProt P00724)
T1 sequence (P00724 20-532): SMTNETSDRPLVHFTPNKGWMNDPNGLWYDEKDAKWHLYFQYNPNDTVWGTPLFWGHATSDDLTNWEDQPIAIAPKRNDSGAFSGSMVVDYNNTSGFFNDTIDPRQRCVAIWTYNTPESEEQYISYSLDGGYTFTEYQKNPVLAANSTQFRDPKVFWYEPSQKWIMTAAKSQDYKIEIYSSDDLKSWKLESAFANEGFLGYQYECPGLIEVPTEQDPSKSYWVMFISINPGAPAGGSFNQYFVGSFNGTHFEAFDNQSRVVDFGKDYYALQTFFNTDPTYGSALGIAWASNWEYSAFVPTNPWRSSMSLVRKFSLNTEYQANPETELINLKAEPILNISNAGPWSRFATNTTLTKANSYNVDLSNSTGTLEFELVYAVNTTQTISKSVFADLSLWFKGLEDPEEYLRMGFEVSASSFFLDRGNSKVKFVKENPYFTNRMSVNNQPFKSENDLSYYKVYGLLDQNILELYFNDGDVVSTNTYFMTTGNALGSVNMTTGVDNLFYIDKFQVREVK

B1: enzyme D: Cichorium intybus 1-FEH IIa with W82 homologue replaced by leucine; also reported by Verhaest et al. 2007 (protein)
chain: QQIEQPYRTGYHFQPPSNWMNDPNGPMLYQGVYHFFYQYNPYAATFGDVIIWGHAVSYDLVNWIHLDPAIYPTQEADSKSCLSGSATILPGNIPAMLYTGSDSKSRQVQDLAWPKNLSDPFLREWVKHPKNPLITPPEGVKDDCFRDPSTAWLGPDGVWRIVVGGDRDNNGMAFLYQSTDFVNWKRYDQPLSSADATGTWECPDFYPVPLNSTNGLDTSVYGGSVRHVMKAGFEGHDWYTIGTYSPDRENFLPQNGLSLTGSTLDLRYDYGQFYASKSFFDDAKNRRVLWAWVPETDSQADDIEKGWAGLQSFPRALWIDRNGKQLIQWPVEEIEELRQNQVNLQNKNLKPGSVLEIHGIAASQADVTISFKLEGLKEAEVLDTTLVDPQALCNERGASSRGALGPFGLLAMASKDLKEQSAIFFRVFQNQLGRYSVLMCSDLSRSTVRSNIDTTSYGAFVDIDPRSEEISLRNLIDHSIIESFGAGGKTCITSRIYPKFVNNEEAHLFVFNNGTQNVKISEMSAWSMKNAKFVVDQSVKSAA
modifications: Fructan 1-exohydrolase precursor (W120L)

Columns and labels:
[1] = biological target: T1, Saccharomyces cerevisiae invertase; details: cited from earlier work; for Activity of S. cerevisiae invertase with the oligosaccharide as substrate: Sainz-Polo et al. 2013; for Activity: substrate hydrolysed by S. cerevisiae invertase, Sainz-Polo et al., 2013
[2] = Sucrose inhibition assay of 1-kestose hydrolysis by partially purified recombinant 1-FEH targets (HPAEC-PAD, fructose released); type: biochemical; details: 380 mM sucrose; 10 mM 1-kestose, 1 hour, 30° C., pH6.0
Protocol: The enzymes A, B, C and D were expressed in Pichia pastoris KM71H strain with a fusion GFP protein at C-terminal in 300 mL of culture media. After 48-hour induction with 0.5% (v/v) […] of methanol, the recombinant proteins were partially purified by precipitation with ammonium sulphate at 70% of saturation, followed by solubilization with sodium phosphate buffer 50 mM pH6.0. The partially purified proteins were concentrated and analyzed by SDS-PAGE and blue-light transluminator for GFP fluorescence. The enzymatic activity assays of the partially purified enzymes were evaluated using 10 mM 1-kestose as substrate, 50 uL of enzyme and sucrose as inhibitor ranging from zero to 380 mM, in a 100 μL-reaction buffered with sodium phosphate 50 mM pH6.0. The reactions were carried for 1 hour at 30° C. and stopped by heating at 95° C. for 5 minutes. The reactions were than diluted to 4 mL with ultrapure water and analyzed high-pressure anion-exchange chromatography with pulsed amperometric detection (HPAEC-PAD, Dionex, Sunnyvale, Calif., USA). Enzyme relative activity was determined by the amount of fructose released.
After identifying that the chosen targets are active against 1-kestose but not sucrose, we performed sucrose inhibition studies in which the amount of enzyme and substrate were fixed and increasing concentrations of sucrose were added to the reaction. […]

[3] = cited from earlier work
[4] = 10 mM sucrose, Verhaest et al., 2007

Row | Molecule | Activity of S. cerevisiae invertase with the oligosaccharide as substrate [1] | Activity [1] | other results
1 | OC[C@H]1O[C@@](CO)(OC[C@@]2(OC[C@@]3(O[C@H]4O[C@H](CO)[C@@H](O)[C@H](O)[C@H]4O)O[C@H](CO)[C@@H](O)[C@@H]3O)O[C@H](CO)[C@@H](O)[C@@H]2O)[C@@H](O)[C@@H]1O [Nystose] | hydrolyzed at a much lower rate | 36 ± 1 µmol/min/mg | 
2 | OC[C@H]1O[C@@](CO)(O[C@H]2O[C@H](CO)[C@@H](O)[C@H](O)[C@H]2O)[C@@H](O)[C@@H]1O [Sucrose, sucrose] | highest efficiency | 520 ± 20 µmol/min/mg | 
3 | OC[C@H]1O[C@H](OC[C@H]2O[C@H](O[C@]3(CO)O[C@H](CO)[C@@H](O)[C@@H]3O)[C@H](O)[C@@H](O)[C@@H]2O)[C@H](O)[C@@H](O)[C@H]1O [Raffinose] |  | 187 ± 8 µmol/min/mg | 
4 | OC[C@H]1O[C@@](CO)(OC[C@@]2(O[C@H]3O[C@H](CO)[C@@H](O)[C@H](O)[C@H]3O)O[C@H](CO)[C@@H](O)[C@@H]2O)[C@@H](O)[C@@H]1O [1-Kestose, β-D-fructofuranosyl-(2→1)-β-D-fructofuranosyl α-D-glucopyranoside] |  | 102 ± 11 µmol/min/mg | 
5 | Inulin | No significant activity | 2.5 ± 0.1 µmol/min/mg | 
6 | B1 |  |  | inhibition by sucrose [2]: 52%; inhibition by sucrose (text) [3, 4]: 0%; inhibition by sucrose (words) [3, 4]: no longer inhibited; % inhibition by sucrose ([3]; 10 mM sucrose): 0% with 10 mM; Sucrose inhibition ([3]; Weak / Strong, Table 3): Weak; inhibition by sucrose as described in the literature ([3]; no sucrose concentration stated): strongly inhibited
